From PubChem BioAssay (NCI)
Values joined by “and” are separate entries in the source; they are usually repeats but may differ in a detail not shown here. Equal values may be shown once.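 1) Cells in 96-well plates. 2) Compound, 48 h, 5 concentrations. 3) Linear interpolation between surrounding doses. 4) Unreached endpoint = highest concentration. GI50 = concentration required for 50% inhibition of growth. The concentration for full growth arrest is given as TGI.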

Assays:
Assay in all cases: growth of human tumour cells (NCI), 48 h
OVCAR-3 ovarian = system: OVCAR-3 ovarian
COLO 205 colon = system: COLO 205 colon
NCI-H522 lung = system: NCI-H522 lung
CAKI-1 renal = system: CAKI-1 renal
RPMI-8226 leukemia = system: RPMI-8226 leukemia
786-0 renal = system: 786-0 renal
U251 CNS = system: U251 CNS
LOX IMVI melanoma = system: LOX IMVI melanoma
KM12 colon = system: KM12 colon
MOLT-4 leukemia = system: MOLT-4 leukemia

Structure (SMILES) | GI50 (OVCAR-3 ovarian) | TGI (OVCAR-3 ovarian) | GI50 (COLO 205 colon) | TGI (COLO 205 colon) | GI50 (NCI-H522 lung) | TGI (NCI-H522 lung) | GI50 (CAKI-1 renal) | TGI (CAKI-1 renal) | GI50 (RPMI-8226 leukemia) | TGI (RPMI-8226 leukemia) | GI50 (786-0 renal) | TGI (786-0 renal) | GI50 (U251 CNS) | TGI (U251 CNS) | GI50 (LOX IMVI melanoma) | TGI (LOX IMVI melanoma) [µM] | GI50 (KM12 colon) | TGI (KM12 colon) | GI50 (MOLT-4 leukemia) | TGI (MOLT-4 leukemia)
O=C(c1cccs1)C1NO[N+]([O-])=C1c1cccs1 (stereo not given) | 1.79 µM | 3.2 µM | 1.8 µM | 4.51 µM | 0.174 µM | 0.336 µM | 1.61 µM | 3.41 µM | 2.36 µM | 6.2 µM | 2.01 µM | 3.88 µM | 5.6 µM | 12 µM | 2.4 µM | 6.5 | 3.33 µM | 12.1 µM | 2.86 µM | 9.19 µM
CCOc1ccc(Nc2c3ccccc3nc3ccccc23)cc1 | 0.313 µM and 0.264 µM | 1.17 µM and 1.03 µM | 0.313 µM and 0.307 µM | 1.39 µM and 1.33 µM | 0.214 µM and 0.319 µM | 1.44 µM and 11.8 µM | 0.359 µM and 0.376 µM | 3.32 µM and 1.75 µM | 1.07 µM and 0.364 µM | 4.58 µM and 4.03 µM | 0.666 µM and 0.34 µM | 6.67 µM and 2.61 µM | 0.464 µM and 0.381 µM | 2.25 µM and 1.9 µM | 0.515 µM and 0.529 µM | 2.98 | 0.581 µM and 0.487 µM | 9.39 µM and 4.52 µM | 0.476 µM and 0.258 µM | 5.59 µM and 1.27 µM
Cc1nc(-c2cccnc2)sc1C(=O)/C=C/c1cccc([N+](=O)[O-])c1 | – | > 100 µM | – | > 100 µM | – | > 100 µM | – | > 100 µM | – | > 100 µM | – | > 100 µM | – | > 100 µM | – | > 100 | – | > 100 µM | – | > 100 µM
CC(C)[O-].CC(C)[O-].CN(CCN(C)Cc1cc(F)cc(F)c1[O-])Cc1cc(F)cc(F)c1[O-].[Ti+4] | 0.923 µM | 6.78 µM | 1.62 µM | 4.86 µM | 0.777 µM | 2.33 µM | 0.874 µM | 6.45 µM | 0.882 µM | 4.44 µM | 1.48 µM | 5.7 µM | 0.438 µM | 1.83 µM | 0.784 µM | 3.88 | 0.907 µM | 2.95 µM | 0.9 µM | 8.47 µM
O=C1c2ccccc2-c2c1c1c(NCCCO)nc3ccccc3c1n2Cc1ccccc1 | 19.8 µM | 45.9 µM | 34.2 µM | > 100 µM | 26 µM | 96.3 µM | 18.6 µM | 38.4 µM | 14.3 µM | 27.3 µM | 21.3 µM | 43.7 µM | 20.8 µM | 44.9 µM | 15.9 µM | 30.9 | 31.3 µM | > 100 µM | 5.94 µM | 42.8 µM
CC(C)Oc1ccc(C(=O)Cn2ccnc2)cc1-n1c(CN2CCN(C(=O)COc3ccc(Cl)cc3)CC2)nc2ccccc2c1=O | 2.18 µM | 13.2 µM | 7.34 µM | 32.7 µM | 2.24 µM | 14.8 µM | 4.04 µM | 9.25 µM | 11.5 µM | 40.4 µM | 1.3 µM | 5.48 µM | 13.2 µM | 30.2 µM | 9.64 µM | 27.5 | 17 µM | 36.2 µM | 7.55 µM | > 71.8 µM
COc1cc(C2c3cc4c(cc3[C@@H](Nc3ccc5c(c3)OCCO5)C3COC(=O)[C@H]23)OCO4)cc(OC)c1O (stereo not given in full) | – | 7.1 µM | – | 4.43 µM | – | 5.43 µM | – | 2.42 µM | – | 8.42 µM | – | 3.11 µM | – | 8.26 µM | – | 22.4 | – | 10.9 µM | – | 1.02 µM
Cc1ccc(-n2nc(C(C)(C)C)cc2NC(=O)NCc2cc(F)ccc2Oc2ccc3c(cnn3CCO)c2)cc1 | > 10 µM and 7.65 µM | > 76.5 µM | 0.795 µM and 1.86 µM | > 10 µM and 10.9 µM | > 10 µM and 5.32 µM | > 10 µM and 37.8 µM | 9.61 µM and 6.5 µM | > 100 µM | 3.28 µM and 2.7 µM | > 10 µM and 28.7 µM | > 10 µM and 8.58 µM | > 100 µM | > 10 µM and 7.01 µM | > 100 µM | 0.836 µM and 2.37 µM | > 38.1 | 0.611 µM and 1.22 µM | > 35.8 µM | 9.91 µM and 2.05 µM | > 10 µM and 5.23 µM
O=C(Cl)C1=C(c2ccccc2)C1c1ccccc1 (stereo not given) | – | > 100 µM | – | > 100 µM | – | > 100 µM | – | > 100 µM | – | > 100 µM | – | > 100 µM | – | > 100 µM | – | > 100 | – | > 100 µM | – | > 100 µM
